“Also recorded” adds a separate entry of the source. Values belong to the compound of their own block, whether it stands above or below them.
What was measured:
HL-60 cells = test: RT-PCR of UMP-CMP kinase expression and phenotype in differentiating HL-60 cells; format: cell-based, human; conditions: HL-60 cells treated with differentiating agent
Source text: The possibility that UMP-CMP kinase was developmentally regulated as monocytes proceed toward the macrophage phenotype was also investigated. To assess this, human monocytes were isolated and cultered for 10 days as they differentiated into macrophages. RNA was isolated on the day of cell plating and then throughout the culture period. […] These cells are monocytic, but differentiate into macrophage-like cells in the presence of phorbol-12-myristate-13-acetate (PMA) (Murao et al., 1983; Rovera et al., 1979), or into neutrophils in the presence of DMSO (Collins et al., 1975). […] These changes included adhesion and altered cell shape. No change in UMP-CMP kinase expression was detected, however, when assayed by RT-PCR. […] Similarly, no change was detected after DMSO treatment.
Because the cDNA had been cloned from a macrophage library, it was also considered possible that UMP-CMP kinase expression might be developmentally regulated as monocytes proceed toward the macrophage phenotype. To evaluate this possibility, Human monocytes were isolated and cultured for 10 days as they differentiated into macrophages. […] In order to confirm this conclusion, HL-60 cells were employed. […] Similarly, no change in this message was detected after DMSO treatment (data not shown).

UMP-CMP kinase [1] = target: T1, UMP-CMP kinase (Homo sapiens, UniProt P30085); test: Enzymatic activity assay (NMP phosphorylation, TLC of radiolabelled products); format: biochemical; conditions: for phosphorylation of the NMP as substrate (phosphate acceptor), in words: lysates of transfected cells vs vector-transfected cells, FIG. 5A; for ability of the NTP to act as phosphate donor (CDP formed), in words: NTP varied
T1 construct: This cDNA codes for a predicted 196 amino-acid protein; expressed in transfected cells; host or cells: HEK 293 or COS-7 cells transiently transfected with pRc/CMV carrying the UMP-CMP kinase cDNA; crude lysate used
T1 sequence (P30085 1-196): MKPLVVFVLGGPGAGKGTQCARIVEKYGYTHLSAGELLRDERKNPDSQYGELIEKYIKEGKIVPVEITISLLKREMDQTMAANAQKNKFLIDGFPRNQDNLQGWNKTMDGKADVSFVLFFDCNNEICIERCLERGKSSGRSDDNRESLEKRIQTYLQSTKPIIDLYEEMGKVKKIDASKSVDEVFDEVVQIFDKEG
Experimental: Tests were conducted on the enzyme produced by the cDNA.
Since many NMP kinases phosphorylate multiple types of NMPs with varying relative kinetics, a variety of NMPs were tested as substrates.
The most preferred phosphate donor of the kinase was next investigated. […] The amount of CDP formed indicates the ability of each NTP to act as a phosphate donor.
Cell lysates (25 μg total protein) prepared as described for Western blot were added to the following reaction mixture: 83 mM tris-HCl (pH 8.0), 3.3 mM MgCl2, 0.17 M KCl, 6.7 mM NTP, 6.7 mM NMP and 0.1 μCi of the indicated [^3H]-NU (60.4 mCi/mmol). The reaction was carried out at 37° C. for 6 min and terminated with an equal volume of 2 M formic acid. Unlabeled NDP was added (6.7 mM final concentration) and the reactions were dried under a steam of nitrogen. The products were resuspended in distilled H2O and analyzed by thin layer chromatography.
Chromatography was performed by ascending development (dry start) in closed plexiglass chambers at room temperature using 0.25 M KH2PO4 (pH 3.4) as described previously. […] The products were visualized under UV light and identified by co-migration with authentic nucleotides. Spots corresponding to different nucleotides were scraped from the plate and radioactive reaction products were quantified with a multi-purpose liquid scintillation counter.

UMP-CMP kinase [2] = target: T1, UMP-CMP kinase; conditions: Mol. Pharmacol. 56:562-569 (1999), ATP as donor, 30 min; cited from earlier work
[3] = varying Mg^2+ concentrations, FIG. 4

SMILES: C[S+](C)[O-] [DMSO]
change in UMP-CMP kinase expression by RT-PCR (HL-60 cells): no change

SMILES: CCCCCCCCCCCCCC(=O)O[C@@H]1[C@@H](C)[C@@]2(O)[C@@H](C=C(CO)C[C@]3(O)C(=O)C(C)=C[C@@H]23)[C@@H]2C(C)(C)[C@]12OC(C)=O [PMA, phorbol-12-myristate-13-acetate]
change in UMP-CMP kinase expression by RT-PCR (HL-60 cells): No change | phenotypic change of HL-60 cells (HL-60 cells): altered the HL-60 cell phenotype from a suspension cell to an adherent cell; also recorded: induced phenotypic changes

SMILES: O=c1ccn([C@@H]2O[C@H](COP(=O)(O)OP(=O)(O)OP(=O)(O)O)[C@@H](O)[C@H]2O)c(=O)[nH]1 [UTP]
ability of the NTP to act as phosphate donor (CDP formed), in words (UMP-CMP kinase [1]; CMP as substrate, FIG. 5B): preferred as phosphate donors over CTP and GTP

SMILES: Nc1ncnc2c1ncn2[C@@H]1O[C@H](COP(=O)(O)O)[C@@H](O)[C@H]1O [AMP]
phosphorylation of the NMP as substrate (phosphate acceptor), in words (UMP-CMP kinase [1]): only slightly

SMILES: Nc1ccn([C@H]2C[C@H](O)[C@@H](COP(=O)(O)O)O2)c(=O)n1 [dCMP]
phosphorylation by the kinase as reported by Van Rompay et al. (UMP-CMP kinase [2]): efficiently phosphorylated

SMILES: Nc1ncnc2c1ncn2[C@@H]1O[C@H](COP(=O)(O)OP(=O)(O)OP(=O)(O)O)[C@@H](O)[C@H]1O [ATP]
ability of the NTP to act as phosphate donor (CDP formed), in words (UMP-CMP kinase [1]; CMP as substrate, FIG. 5B): preferred as phosphate donors over CTP and GTP | phosphorylation of the NMP as substrate (phosphate acceptor), in words (UMP-CMP kinase [1]): Modest

Now from value to compound, other results behind:

reaction efficiency in the presence of CMP relative to UMP (UMP-CMP kinase [1]): three-fold greater reaction efficiency | phosphorylation of the NMP as substrate (phosphate acceptor), in words (UMP-CMP kinase [1]): prefers
SMILES: Nc1ccn([C@@H]2O[C@H](COP(=O)(O)O)[C@@H](O)[C@H]2O)c(=O)n1 [CMP, Cytidine Monophosphate]
phosphorylation by the kinase as reported by Van Rompay et al. (UMP-CMP kinase [2]): efficiently phosphorylated

phosphorylation of the NMP as substrate (phosphate acceptor), in words (UMP-CMP kinase [1]): prefers
SMILES: O=c1ccn([C@@H]2O[C@H](COP(=O)(O)O)[C@@H](O)[C@H]2O)c(=O)[nH]1 [UMP]
phosphorylation by the kinase as reported by Van Rompay et al. (UMP-CMP kinase [2]): efficiently phosphorylated

reaction efficiency as phosphate donor relative to ATP or UTP (UMP-CMP kinase [1]; CMP as substrate, FIG. 5B): half and approximately half
SMILES: Nc1ccn([C@@H]2O[C@H](COP(=O)(O)O)[C@@H](O)[C@@H]2O)c(=O)n1 [CTP]

phosphorylation of the NMP as substrate (phosphate acceptor), in words (UMP-CMP kinase [1]): unable to phosphorylate
SMILES: Nc1nc2c(ncn2[C@@H]2O[C@H](COP(=O)(O)O)[C@@H](O)[C@H]2O)c(=O)[nH]1 [GMP]

Mg^2+ concentration giving maximal UMP-CMP kinase activity (UMP-CMP kinase [1]; [3]): 3 mM
SMILES: [Mg+2] [Mg^2+]
effect of Mg^2+ on UMP-CMP kinase activity, in words (UMP-CMP kinase [1]; [3]): increases UMP-CMP kinase activity in a concentration-dependent manner

Reference: patent US20050100998A1 (priority 2000, published 2005)
